In patent US20260201008A1, “SECRETIN-DERIVED GLP1R SELECTIVE AGONISTS” (GUBRA A/S, priority 2023, published 2026):
Square brackets hold non-standard residues; d marks the D form. Ends that are not written are not given here. Peptide text beside a SMILES is read from it. Aib = CC(C)(N)C(=O)O

Assays:
[1] = Turbidity of crude library peptides (absorbance at 600 nm); format: physicochemical; settings: Physical stability of peptides
Procedure: (§1) Peptides were dissolved in buffers (50 mM sodium acetate at pH 4.0, or 50 mM sodium phosphate at pH 7.0) to 267 μM and incubated for 1-2 hours at room temperature. The samples were then divided into two replicates of 80 μl in a black 384 well plate (μ-clear, Greiner Bio-One) and mixed with Thioflavin T (ThT) to a final concentration of 4 μM. The plate was centrifuged for 2 min at 2000 rpm to remove air bubbles, sealed, and placed in a plate reader (CLARIOstar, BMG). Firstly, turbidity of the samples was measured as the absorbance at 600 nm. Secondly, the plate reader temperature was set to 40° C. and the fluorescence was measured every 10 min for 72 hours by exciting the ThT at 450 nm and measuring the emission at 480 nm. Samples were stressed by shaking the plate at 700 rpm (linear) for five minutes before every measurement, and fibril formation was determined as the average emission for each sample.

[2] = Fibril formation of crude library peptides (Thioflavin T); format: physicochemical; design: key: average ThT fluorescence emission at 480 nm (ex 450 nm), raw units; settings: Physical stability of peptides
Procedure: as §1

GLP1R = GLP1R (Homo sapiens, UniProt P43220); assay: hGLP1R potency, cAMP accumulation in CHO-K1 cells stably overexpressing hGLP1R; format: cell-based; design: host or cells: CHO-K1; settings: Table 4, position X12 variants of GUB06-046; for Selectivity: SCTR EC50/GLP1R EC50 ratio; for EC50: read-out: pEC50 hGLPR1 (converted)
Sequence of GLP1R (P43220 24-463): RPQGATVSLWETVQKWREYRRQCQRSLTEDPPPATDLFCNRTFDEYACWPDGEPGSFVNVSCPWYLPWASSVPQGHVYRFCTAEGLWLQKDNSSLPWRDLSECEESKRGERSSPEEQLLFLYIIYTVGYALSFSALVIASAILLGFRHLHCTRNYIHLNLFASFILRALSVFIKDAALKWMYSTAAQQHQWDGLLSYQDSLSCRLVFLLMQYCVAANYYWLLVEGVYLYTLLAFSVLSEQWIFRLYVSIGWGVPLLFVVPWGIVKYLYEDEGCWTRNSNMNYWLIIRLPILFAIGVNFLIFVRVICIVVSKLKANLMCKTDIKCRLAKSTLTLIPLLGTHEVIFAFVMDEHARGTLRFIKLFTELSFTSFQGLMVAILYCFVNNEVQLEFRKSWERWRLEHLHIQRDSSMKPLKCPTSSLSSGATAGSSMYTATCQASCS
Description: (§2) Crude library peptides are screened in 10-fold serial dilutions of 5 concentrations, n=1 time. Tip change is done for the first two serial dilutions. Compound starting concentration (top) will be adjusted throughout the study if needed.
(§3) Purified peptides are screened in 3-fold serial dilutions of 11 concentrations, n=2 times. Tip change is done for all serial dilutions. Compound starting concentration (top) will be adjusted throughout the study. If the top concentration is adjusted or a 5-fold difference in calculated EC50 values is observed, n is increased by 1. EC50 values were calculated by nonlinear regression using sigmoid concentration-response with variable slope.
(§4) A CHO-K1 cell line stably overexpressing the hGLP1R was obtained from Euroscreen (FAST-0145L), expanded, aliquoted and frozen. An aliquot was thawed and plated in DPBS with 0.05% casein and 0.5 mM IBMX as 2000 cells/well in a 384-well format. The cells were then immediately stimulated for 30 min at room temperature with graded doses of test compound using human GLP-1(7-36) (synthesized at Gubra) as a positive control. cAMP accumulation was measured using a Cisbio assay for Gs coupled receptors (cat. no. 62AM4PEC), where the assay reagents were added as per the manufacturer's instructions and time-resolved fluorescence energy transfer recorded after one hour on a CLARIOstar (BMG Labtech) plate reader.

SCTR = SCTR (Homo sapiens, UniProt P47872); assay: hSCTR potency, cAMP accumulation in CHO-K1 cells stably overexpressing hSCTR; format: cell-based; design: alternatively Euroscreen ES-712-AF; FAST-0161L; host or cells: CHO-K1; settings: Table 4, position X12 variants of GUB06-046; read-out: pEC50 hSCTR (converted)
Sequence of SCTR (P47872 23-440): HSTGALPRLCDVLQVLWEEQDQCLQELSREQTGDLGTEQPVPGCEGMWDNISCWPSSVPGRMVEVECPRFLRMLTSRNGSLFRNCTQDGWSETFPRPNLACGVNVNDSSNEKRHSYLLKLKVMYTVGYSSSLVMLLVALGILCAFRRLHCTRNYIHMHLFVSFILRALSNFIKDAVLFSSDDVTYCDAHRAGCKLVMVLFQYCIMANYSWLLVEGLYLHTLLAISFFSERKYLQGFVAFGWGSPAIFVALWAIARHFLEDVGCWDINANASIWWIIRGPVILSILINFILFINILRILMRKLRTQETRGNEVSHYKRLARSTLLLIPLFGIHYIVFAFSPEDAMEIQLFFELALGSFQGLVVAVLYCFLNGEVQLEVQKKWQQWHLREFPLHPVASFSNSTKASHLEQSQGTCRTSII
Description: as §2, §3
as §4, with “Frozen division arrested CHO-K1 cells stably overexpressing the hSCTR were obtained from PerkinElmer (ES-712-AF). Alternatively, a CHO-K1” for “A CHO-K1”, “the hSCTR” for “the hGLP1R”, “Euroscreen (FAST-0161L),” for “Euroscreen (FAST-0145L),”, “human secretin” for “human GLP-1(7-36)”

[3] = molecular target: human secretin receptor (hSCTR) (human, UniProt P47872 23-440); assay: cell-based or functional assay
Sequence of human secretin receptor (hSCTR) (P47872 23-440): as above

Molecule	Selectivity (GLP1R)	EC50 (GLP1R) [nM]	EC50 (SCTR) [nM]	pEC50 hSCTR [3]	Turbidity (pH 7) [1]	Fibril formation [2]
216 (GUB06-046) (H[Aib]EGTFTSDLSRLLEGAALQRFIQWLV-NH2; N-terminus assumed; SMILES CC[C@H](C)[C@H](NC(=O)[C@H](Cc1ccccc1)NC(=O)[C@H](CCCNC(=N)N)NC(=O)[C@H](CCC(N)=O)NC(=O)[C@H](CC(C)C)NC(=O)[C@H](C)NC(=O)[C@H](C)NC(=O)CNC(=O)[C@H](CCC(=O)O)NC(=O)[C@H](CC(C)C)NC(=O)[C@H](CC(C)C)NC(=O)[C@H](CCCNC(=N)N)NC(=O)[C@H](CO)NC(=O)[C@H](CC(C)C)NC(=O)[C@H](CC(=O)O)NC(=O)[C@H](CO)NC(=O)[C@@H](NC(=O)[C@H](Cc1ccccc1)NC(=O)[C@@H](NC(=O)CNC(=O)[C@H](CCC(=O)O)NC(=O)C(C)(C)NC(=O)[C@@H](N)Cc1c[nH]cn1)[C@@H](C)O)[C@@H](C)O)C(=O)N[C@@H](CCC(N)=O)C(=O)N[C@@H](Cc1c[nH]c2ccccc12)C(=O)N[C@@H](CC(C)C)C(=O)N[C@H](C(N)=O)C(C)C)	–	–	–	–	0.48	11040
CC[C@H](C)[C@H](NC(=O)[C@H](Cc1ccccc1)NC(=O)[C@H](CCCNC(=N)N)NC(=O)[C@H](CCC(N)=O)NC(=O)[C@H](CC(C)C)NC(=O)[C@H](C)NC(=O)[C@H](C)NC(=O)CNC(=O)[C@H](CCC(=O)O)NC(=O)[C@H](CC(C)C)NC(=O)[C@H](CC(C)C)NC(=O)[C@H](Cc1c[nH]c2ccccc12)NC(=O)[C@H](CO)NC(=O)[C@H](CC(C)C)NC(=O)[C@H](CC(=O)O)NC(=O)[C@H](CO)NC(=O)[C@@H](NC(=O)[C@H](Cc1ccccc1)NC(=O)[C@@H](NC(=O)CNC(=O)[C@H](CCC(=O)O)NC(=O)C(C)(C)NC(=O)[C@@H](N)Cc1c[nH]cn1)[C@@H](C)O)[C@@H](C)O)C(=O)N[C@@H](CCC(N)=O)C(=O)N[C@@H](Cc1c[nH]c2ccccc12)C(=O)N[C@@H](CC(C)C)C(=O)N[C@H](C(N)=O)C(C)C [compound 228] (H-H[Aib]EGTFTSDLSWLLEGAALQRFIQWLV-NH2)	53	0.0158	0.794	–	–	–
CC[C@H](C)[C@H](NC(=O)[C@H](Cc1ccccc1)NC(=O)[C@H](CCCNC(=N)N)NC(=O)[C@H](CCC(N)=O)NC(=O)[C@H](CC(C)C)NC(=O)[C@H](C)NC(=O)[C@H](C)NC(=O)CNC(=O)[C@H](CCC(=O)O)NC(=O)[C@H](CC(C)C)NC(=O)[C@H](CC(C)C)NC(=O)CNC(=O)[C@H](CO)NC(=O)[C@H](CC(C)C)NC(=O)[C@H](CC(=O)O)NC(=O)[C@H](CO)NC(=O)[C@@H](NC(=O)[C@H](Cc1ccccc1)NC(=O)[C@@H](NC(=O)CNC(=O)[C@H](CCC(=O)O)NC(=O)C(C)(C)NC(=O)[C@@H](N)Cc1c[nH]cn1)[C@@H](C)O)[C@@H](C)O)C(=O)N[C@@H](CCC(N)=O)C(=O)N[C@@H](Cc1c[nH]c2ccccc12)C(=O)N[C@@H](CC(C)C)C(=O)N[C@H](C(N)=O)C(C)C [compound 226] (H-H[Aib]EGTFTSDLSGLLEGAALQRFIQWLV-NH2)	145	0.0316	5.01	–	–	–
CC[C@H](C)[C@H](NC(=O)[C@H](Cc1ccccc1)NC(=O)[C@H](CCCNC(=N)N)NC(=O)[C@H](CCC(N)=O)NC(=O)[C@H](CC(C)C)NC(=O)[C@H](C)NC(=O)[C@H](C)NC(=O)CNC(=O)[C@H](CCC(=O)O)NC(=O)[C@H](CC(C)C)NC(=O)[C@H](CC(C)C)NC(=O)[C@@H](NC(=O)[C@H](CO)NC(=O)[C@H](CC(C)C)NC(=O)[C@H](CC(=O)O)NC(=O)[C@H](CO)NC(=O)[C@@H](NC(=O)[C@H](Cc1ccccc1)NC(=O)[C@@H](NC(=O)CNC(=O)[C@H](CCC(=O)O)NC(=O)C(C)(C)NC(=O)[C@@H](N)Cc1c[nH]cn1)[C@@H](C)O)[C@@H](C)O)C(C)C)C(=O)N[C@@H](CCC(N)=O)C(=O)N[C@@H](Cc1c[nH]c2ccccc12)C(=O)N[C@@H](CC(C)C)C(=O)N[C@H](C(N)=O)C(C)C [compound 227] (H-H[Aib]EGTFTSDLSVLLEGAALQRFIQWLV-NH2)	43	0.0316	1.26	–	–	–
H[Aib]EGTFTSDWSRLLEGAALQRFIQWLV-NH2 (N-terminus assumed; SMILES CC[C@H](C)[C@H](NC(=O)[C@H](Cc1ccccc1)NC(=O)[C@H](CCCNC(=N)N)NC(=O)[C@H](CCC(N)=O)NC(=O)[C@H](CC(C)C)NC(=O)[C@H](C)NC(=O)[C@H](C)NC(=O)CNC(=O)[C@H](CCC(=O)O)NC(=O)[C@H](CC(C)C)NC(=O)[C@H](CC(C)C)NC(=O)[C@H](CCCNC(=N)N)NC(=O)[C@H](CO)NC(=O)[C@H](Cc1c[nH]c2ccccc12)NC(=O)[C@H](CC(=O)O)NC(=O)[C@H](CO)NC(=O)[C@@H](NC(=O)[C@H](Cc1ccccc1)NC(=O)[C@@H](NC(=O)CNC(=O)[C@H](CCC(=O)O)NC(=O)C(C)(C)NC(=O)[C@@H](N)Cc1c[nH]cn1)[C@@H](C)O)[C@@H](C)O)C(=O)N[C@@H](CCC(N)=O)C(=O)N[C@@H](Cc1c[nH]c2ccccc12)C(=O)N[C@@H](CC(C)C)C(=O)N[C@H](C(N)=O)C(C)C) [SEQ ID NO: 186]	–	–	–	8.2 -log M	–	–

Continued, in another order:

Selectivity (GLP1R)	EC50 (GLP1R) [nM]	EC50 (SCTR) [nM]	pEC50 hSCTR [3]	Molecule	Turbidity (pH 7) [1]	Fibril formation [2]
120	0.0126	1.58	–	CC[C@H](C)[C@H](NC(=O)[C@H](Cc1ccccc1)NC(=O)[C@H](CCCNC(=N)N)NC(=O)[C@H](CCC(N)=O)NC(=O)[C@H](CC(C)C)NC(=O)[C@H](C)NC(=O)[C@H](C)NC(=O)CNC(=O)[C@H](CCC(=O)O)NC(=O)[C@H](CC(C)C)NC(=O)[C@H](CC(C)C)NC(=O)[C@H](CCC(=O)O)NC(=O)[C@H](CO)NC(=O)[C@H](CC(C)C)NC(=O)[C@H](CC(=O)O)NC(=O)[C@H](CO)NC(=O)[C@@H](NC(=O)[C@H](Cc1ccccc1)NC(=O)[C@@H](NC(=O)CNC(=O)[C@H](CCC(=O)O)NC(=O)C(C)(C)NC(=O)[C@@H](N)Cc1c[nH]cn1)[C@@H](C)O)[C@@H](C)O)C(=O)N[C@@H](CCC(N)=O)C(=O)N[C@@H](Cc1c[nH]c2ccccc12)C(=O)N[C@@H](CC(C)C)C(=O)N[C@H](C(N)=O)C(C)C [compound 224] (H-H[Aib]EGTFTSDLSELLEGAALQRFIQWLV-NH2)	–	–
–	–	–	8.8 -log M	H[Aib]EGTFTSDYSRLLEGAALQRFIQWLV-NH2 (N-terminus assumed; SMILES CC[C@H](C)[C@H](NC(=O)[C@H](Cc1ccccc1)NC(=O)[C@H](CCCNC(=N)N)NC(=O)[C@H](CCC(N)=O)NC(=O)[C@H](CC(C)C)NC(=O)[C@H](C)NC(=O)[C@H](C)NC(=O)CNC(=O)[C@H](CCC(=O)O)NC(=O)[C@H](CC(C)C)NC(=O)[C@H](CC(C)C)NC(=O)[C@H](CCCNC(=N)N)NC(=O)[C@H](CO)NC(=O)[C@H](Cc1ccc(O)cc1)NC(=O)[C@H](CC(=O)O)NC(=O)[C@H](CO)NC(=O)[C@@H](NC(=O)[C@H](Cc1ccccc1)NC(=O)[C@@H](NC(=O)CNC(=O)[C@H](CCC(=O)O)NC(=O)C(C)(C)NC(=O)[C@@H](N)Cc1c[nH]cn1)[C@@H](C)O)[C@@H](C)O)C(=O)N[C@@H](CCC(N)=O)C(=O)N[C@@H](Cc1c[nH]c2ccccc12)C(=O)N[C@@H](CC(C)C)C(=O)N[C@H](C(N)=O)C(C)C) [SEQ ID NO: 194]	–	–
